From PubChem BioAssay (NCI)
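A five-concentration, 48-hour dose response in 96-well plates underlies each endpoint, interpolated linearly between surrounding concentrations. Abbreviation: GI50, concentration required for 50% inhibition of growth. The concentration for full growth arrest is given as TGI.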

How the values were obtained:
Test in all cases: NCI anticancer screen, dose series, 48 h
SW-620 colon = tested on: SW-620 colon
NCI/ADR-RES ovarian = tested on: NCI/ADR-RES ovarian
RPMI-8226 leukemia = tested on: RPMI-8226 leukemia
COLO 205 colon = tested on: COLO 205 colon
OVCAR-8 ovarian = tested on: OVCAR-8 ovarian
CAKI-1 renal = tested on: CAKI-1 renal
NCI-H522 lung = tested on: NCI-H522 lung
NCI-H460 lung = tested on: NCI-H460 lung
MOLT-4 leukemia = tested on: MOLT-4 leukemia
SNB-19 CNS = tested on: SNB-19 CNS
SK-MEL-28 melanoma = tested on: SK-MEL-28 melanoma
NCI-H226 lung = tested on: NCI-H226 lung
K-562 leukemia = tested on: K-562 leukemia
MCF7 breast = tested on: MCF7 breast
SF-295 CNS = tested on: SF-295 CNS
HS 578T breast = tested on: HS 578T breast
SK-MEL-5 melanoma = tested on: SK-MEL-5 melanoma
UACC-257 melanoma = tested on: UACC-257 melanoma
M14 melanoma = tested on: M14 melanoma
HCT-15 colon = tested on: HCT-15 colon
HOP-62 NSCLC = tested on: HOP-62 NSCLC
UACC-62 melanoma = tested on: UACC-62 melanoma
CCRF-CEM leukemia = tested on: CCRF-CEM leukemia
EKVX NSCLC = tested on: EKVX NSCLC
SF-268 CNS = tested on: SF-268 CNS
OVCAR-5 ovarian = tested on: OVCAR-5 ovarian
SK-OV-3 ovarian = tested on: SK-OV-3 ovarian
HOP-92 NSCLC = tested on: HOP-92 NSCLC
TK-10 renal = tested on: TK-10 renal
KM12 colon = tested on: KM12 colon
DU-145 prostate = tested on: DU-145 prostate
A498 renal = tested on: A498 renal
SNB-75 CNS = tested on: SNB-75 CNS
BT-549 breast = tested on: BT-549 breast
PC-3 prostate = tested on: PC-3 prostate
SF-539 CNS = tested on: SF-539 CNS
MDA-MB-231 breast = tested on: MDA-MB-231 breast
HCC-2998 colon = tested on: HCC-2998 colon
OVCAR-3 ovarian = tested on: OVCAR-3 ovarian
ACHN renal = tested on: ACHN renal
HCT-116 colon = tested on: HCT-116 colon
NCI-H23 lung = tested on: NCI-H23 lung
HT29 colon = tested on: HT29 colon
U251 CNS = tested on: U251 CNS
LOX IMVI melanoma = tested on: LOX IMVI melanoma
786-0 renal = tested on: 786-0 renal
SN12C renal = tested on: SN12C renal
RXF 393 renal = tested on: RXF 393 renal
OVCAR-4 ovarian = tested on: OVCAR-4 ovarian
MDA-MB-435 = tested on: MDA-MB-435
A549 NSCLC = tested on: A549 NSCLC
HL-60(TB) leukemia = tested on: HL-60(TB) leukemia
IGROV1 ovarian = tested on: IGROV1 ovarian
MALME-3M melanoma = tested on: MALME-3M melanoma
SK-MEL-2 melanoma = tested on: SK-MEL-2 melanoma
UO-31 renal = tested on: UO-31 renal
SR leukemia = tested on: SR leukemia
T-47D breast = tested on: T-47D breast

CN(C)S(=O)(=O)c1cccc(-c2nc3sc4c(c3c(=O)[nH]2)CCCC4)c1
GI50 (SW-620 colon): 1.78 µM
TGI (SW-620 colon): > 100 µM
GI50 (NCI/ADR-RES ovarian): 2.83 µM
TGI (NCI/ADR-RES ovarian): > 100 µM
GI50 (RPMI-8226 leukemia): > 100 µM
TGI (RPMI-8226 leukemia): > 100 µM
GI50 (COLO 205 colon): > 100 µM
TGI (COLO 205 colon): > 100 µM
GI50 (OVCAR-8 ovarian): 1.52 µM
TGI (OVCAR-8 ovarian): > 100 µM
GI50 (CAKI-1 renal): > 100 µM
TGI (CAKI-1 renal): > 100 µM
GI50 (NCI-H522 lung): > 100 µM
TGI (NCI-H522 lung): > 100 µM
GI50 (NCI-H460 lung): 0.931 µM
TGI (NCI-H460 lung): > 100 µM
GI50 (MOLT-4 leukemia): > 100 µM
TGI (MOLT-4 leukemia): > 100 µM
GI50 (SNB-19 CNS): 2.91 µM
TGI (SNB-19 CNS): > 100 µM
GI50 (SK-MEL-28 melanoma): > 100 µM
TGI (SK-MEL-28 melanoma): > 100 µM
GI50 (NCI-H226 lung): 2.38 µM
TGI (NCI-H226 lung): > 100 µM
GI50 (K-562 leukemia): > 100 µM
TGI (K-562 leukemia): > 100 µM
GI50 (MCF7 breast): > 100 µM
TGI (MCF7 breast): > 100 µM
GI50 (SF-295 CNS): 1.35 µM
TGI (SF-295 CNS): 4.01 µM
GI50 (HS 578T breast): 2.98 µM
TGI (HS 578T breast): > 100 µM
GI50 (SK-MEL-5 melanoma): > 100 µM
TGI (SK-MEL-5 melanoma): > 100 µM
GI50 (UACC-257 melanoma): > 100 µM
TGI (UACC-257 melanoma): > 100 µM
GI50 (M14 melanoma): > 100 µM
TGI (M14 melanoma): > 100 µM
GI50 (HCT-15 colon): > 100 µM
TGI (HCT-15 colon): > 100 µM
GI50 (HOP-62 NSCLC): 3.73 µM
TGI (HOP-62 NSCLC): > 100 µM
GI50 (UACC-62 melanoma): > 100 µM
TGI (UACC-62 melanoma): > 100 µM
TGI (CCRF-CEM leukemia): > 100 µM
GI50 (EKVX NSCLC): > 100 µM
TGI (EKVX NSCLC): > 100 µM
GI50 (SF-268 CNS): 3.24 µM
TGI (SF-268 CNS): > 100 µM

O=C1/C(=C\c2cn(CC(O)CN3CCCCC3)c3ccccc23)c2ccccc2N1c1c(Cl)cccc1Cl (stereo not given)
GI50 (OVCAR-5 ovarian): 1.57 µM
TGI (OVCAR-5 ovarian): 2.92 µM
GI50 (SK-OV-3 ovarian): 1.63 µM
TGI (SK-OV-3 ovarian): 3.13 µM
GI50 (HOP-92 NSCLC): 1.59 µM
TGI (HOP-92 NSCLC): 3.2 µM
GI50 (TK-10 renal): 1.82 µM
TGI (TK-10 renal): 3.29 µM
GI50 (KM12 colon): 1.89 µM
TGI (KM12 colon): 3.37 µM
GI50 (SF-295 CNS): 1.8 µM
TGI (SF-295 CNS): 3.3 µM
GI50 (HS 578T breast): 2.27 µM
TGI (HS 578T breast): 5.78 µM
GI50 (DU-145 prostate): 1.88 µM
TGI (DU-145 prostate): 3.32 µM
GI50 (M14 melanoma): 1.66 µM
TGI (M14 melanoma): 3.1 µM
GI50 (A498 renal): 1.7 µM
TGI (A498 renal): 3.24 µM
GI50 (SNB-75 CNS): 1.3 µM
TGI (SNB-75 CNS): 2.63 µM
GI50 (BT-549 breast): 1.71 µM
TGI (BT-549 breast): 3.18 µM
GI50 (PC-3 prostate): 1.41 µM
TGI (PC-3 prostate): 2.81 µM
GI50 (UACC-62 melanoma): 1.76 µM
TGI (UACC-62 melanoma): 3.2 µM
GI50 (SF-539 CNS): 1.68 µM
TGI (SF-539 CNS): 3.18 µM
GI50 (MDA-MB-231 breast): 1.79 µM
TGI (MDA-MB-231 breast): 3.21 µM
GI50 (HCC-2998 colon): 1.73 µM
TGI (HCC-2998 colon): 3.16 µM

COC12C=CC(CC1)C(C)(C)C2O (stereo not given)
TGI (SNB-75 CNS): > 100 µM

FC(F)(F)c1nc2cc(SSc3cc4nc(C(F)(F)F)[nH]c4cc3Cl)c(Cl)cc2[nH]1
TGI (SW-620 colon): > 100 µM
TGI (OVCAR-3 ovarian): > 100 µM
TGI (NCI/ADR-RES ovarian): > 100 µM
TGI (RPMI-8226 leukemia): > 100 µM
TGI (COLO 205 colon): > 100 µM
TGI (OVCAR-8 ovarian): > 100 µM
TGI (CAKI-1 renal): > 100 µM
TGI (OVCAR-5 ovarian): > 100 µM
TGI (SK-OV-3 ovarian): > 100 µM
TGI (ACHN renal): > 100 µM
TGI (NCI-H522 lung): > 100 µM
TGI (HCT-116 colon): > 100 µM
TGI (NCI-H23 lung): > 100 µM
TGI (NCI-H460 lung): > 100 µM
TGI (HT29 colon): > 100 µM
TGI (U251 CNS): > 100 µM
TGI (LOX IMVI melanoma): > 100 µM
TGI (TK-10 renal): > 100 µM
TGI (MOLT-4 leukemia): > 100 µM
TGI (SNB-19 CNS): > 100 µM
TGI (786-0 renal): > 100 µM
TGI (SN12C renal): > 100 µM
TGI (SK-MEL-28 melanoma): > 100 µM
TGI (NCI-H226 lung): > 100 µM
TGI (RXF 393 renal): > 100 µM
TGI (K-562 leukemia): > 100 µM
TGI (MCF7 breast): > 100 µM
TGI (OVCAR-4 ovarian): > 100 µM
TGI (SF-295 CNS): > 100 µM
TGI (HS 578T breast): > 100 µM
TGI (SK-MEL-5 melanoma): > 100 µM
TGI (UACC-257 melanoma): > 100 µM
TGI (MDA-MB-435): > 100 µM
TGI (DU-145 prostate): > 100 µM
TGI (M14 melanoma): > 100 µM
TGI (HCT-15 colon): > 100 µM
TGI (A498 renal): > 100 µM
TGI (HOP-62 NSCLC): > 100 µM
TGI (A549 NSCLC): > 100 µM
TGI (BT-549 breast): > 100 µM
TGI (PC-3 prostate): > 100 µM
TGI (UACC-62 melanoma): > 100 µM
TGI (SF-539 CNS): > 100 µM
TGI (MDA-MB-231 breast): > 100 µM
TGI (HL-60(TB) leukemia): > 100 µM
TGI (HCC-2998 colon): > 100 µM
TGI (IGROV1 ovarian): > 100 µM
TGI (EKVX NSCLC): > 100 µM
TGI (MALME-3M melanoma): > 100 µM
TGI (SF-268 CNS): > 100 µM
TGI (SK-MEL-2 melanoma): > 100 µM

O=C(Nc1ccc([N+](=O)[O-])cc1)c1ccc([N+](=O)[O-])cc1
TGI (SF-295 CNS): > 100 µM
TGI (SNB-75 CNS): > 100 µM

Cc1ccc(-c2nc3n(c2/C=N\N=C(N)N)CCS3)cc1
TGI (SW-620 colon): 30.8 µM
TGI (NCI/ADR-RES ovarian): > 100 µM
TGI (RPMI-8226 leukemia): 68.8 µM
TGI (COLO 205 colon): 27.7 µM
TGI (OVCAR-8 ovarian): 29.3 µM
TGI (CAKI-1 renal): 34 µM
TGI (OVCAR-5 ovarian): 30.1 µM
TGI (SK-OV-3 ovarian): 29 µM
TGI (HOP-92 NSCLC): 34 µM
TGI (ACHN renal): 28.2 µM
TGI (NCI-H522 lung): 18.1 µM
TGI (HCT-116 colon): 28.5 µM
TGI (NCI-H23 lung): 30.4 µM
TGI (UO-31 renal): 30.5 µM
TGI (NCI-H460 lung): 32 µM
TGI (HT29 colon): 27.3 µM
TGI (U251 CNS): 28.4 µM
TGI (LOX IMVI melanoma): 31.9 µM
TGI (TK-10 renal): 33.1 µM
TGI (SR leukemia): > 100 µM
TGI (MOLT-4 leukemia): > 100 µM
TGI (SNB-19 CNS): 28.5 µM
TGI (T-47D breast): 29 µM
TGI (786-0 renal): 29.3 µM
TGI (SN12C renal): 29.6 µM
TGI (SK-MEL-28 melanoma): 29.4 µM
TGI (RXF 393 renal): 29.6 µM
TGI (K-562 leukemia): 44.2 µM
TGI (KM12 colon): 28.5 µM
TGI (OVCAR-4 ovarian): 30.3 µM
TGI (SF-295 CNS): 24.6 µM
TGI (HS 578T breast): 41.4 µM
TGI (SK-MEL-5 melanoma): 27.2 µM
TGI (UACC-257 melanoma): 30.5 µM
TGI (MDA-MB-435): 28.9 µM
TGI (DU-145 prostate): 26.8 µM
TGI (HCT-15 colon): 31.8 µM
TGI (A498 renal): 30.5 µM
TGI (HOP-62 NSCLC): 28.6 µM
TGI (SNB-75 CNS): 23.2 µM
TGI (A549 NSCLC): 29.5 µM
TGI (PC-3 prostate): 28.5 µM
TGI (UACC-62 melanoma): 32.1 µM
TGI (SF-539 CNS): 28.5 µM
TGI (MDA-MB-231 breast): 29.9 µM
TGI (CCRF-CEM leukemia): 55.9 µM
TGI (HL-60(TB) leukemia): 78.3 µM
TGI (HCC-2998 colon): 24.2 µM
TGI (IGROV1 ovarian): 28.3 µM
TGI (EKVX NSCLC): 30.9 µM
TGI (MALME-3M melanoma): 31.2 µM
TGI (SF-268 CNS): 29.3 µM
TGI (SK-MEL-2 melanoma): 25.9 µM
